Results reported in patent publication US20210382058A1, “PATIENT SELECTION FOR TREATMENT OF MYC POSITIVE CANCERS WITH INDENOISOQUINOLINES” (Purdue Research Foundation, priority 2020, published 2021).
Like-named read-outs stand apart in the source and are kept apart here.

Experiments:
human topoisomerase I = target: T1, human topoisomerase I (Homo sapiens, UniProt P11387); conditions: relative topoisomerase I inhibition levels, previously determined, six levels (0 - 5, +++++ = 5); cited from earlier work
T1 sequence (P11387 1-765): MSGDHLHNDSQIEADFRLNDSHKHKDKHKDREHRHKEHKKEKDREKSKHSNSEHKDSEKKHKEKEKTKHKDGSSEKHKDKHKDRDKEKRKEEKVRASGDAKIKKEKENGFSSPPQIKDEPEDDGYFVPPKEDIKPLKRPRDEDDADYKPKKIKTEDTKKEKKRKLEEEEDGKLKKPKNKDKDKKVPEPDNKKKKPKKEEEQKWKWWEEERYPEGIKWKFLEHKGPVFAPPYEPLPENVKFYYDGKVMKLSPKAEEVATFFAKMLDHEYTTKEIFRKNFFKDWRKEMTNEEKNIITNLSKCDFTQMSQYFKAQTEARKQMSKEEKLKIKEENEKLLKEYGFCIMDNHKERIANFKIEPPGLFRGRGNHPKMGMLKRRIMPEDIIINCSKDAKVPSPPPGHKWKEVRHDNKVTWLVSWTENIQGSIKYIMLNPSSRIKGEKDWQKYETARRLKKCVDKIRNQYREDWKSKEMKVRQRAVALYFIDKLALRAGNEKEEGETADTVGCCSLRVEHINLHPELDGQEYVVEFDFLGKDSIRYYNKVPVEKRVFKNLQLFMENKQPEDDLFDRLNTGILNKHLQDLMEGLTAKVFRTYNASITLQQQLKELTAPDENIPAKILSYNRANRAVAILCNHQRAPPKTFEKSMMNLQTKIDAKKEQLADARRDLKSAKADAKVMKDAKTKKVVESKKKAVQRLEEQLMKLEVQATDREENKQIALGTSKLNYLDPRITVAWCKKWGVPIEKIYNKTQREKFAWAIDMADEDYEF

NCI-60 cancer cell lines = assay: NCI-60 cancer cell line drug screen (GI50, MGM); format: cell-based, human; conditions: Homo sapiens; for GI50: read-out: Antiproliferative Activities [GI50 (μM)]
Description: Cancer cells were incubated with the test compounds at five concentrations ranging from 100 μM to 10 nM for 48 h. […] The approximate average of GI50 values across the entire panel of NCI-60 cancer cell lines for each compound was recorded as the MGM value.

[1] = test system: MYC protein expression in MCF-7 breast cancer cells; assay: Western blotting of MYC protein level in MCF-7 cells; format: cell-based, human; conditions: Homo sapiens, MCF7; western blotting, MCF-7 cells, 0.5, 1, 2, and 4 μM, 24 hours; read-out: MYC Inhibition
Outline: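 Immunoblotting with ECL detection quantified MYC, with GAPDH (1:2000) as reference and anti-MYC at 1:1000.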

For `CN(C)CCCn1c2c(c3ccc(-c4ccn[nH]4)cc3c1=O)C(=O)c1ccccc1-2` [Compound 30], the “Top1 Inhibiton” value (human topoisomerase I) is given as 0 (no inhibition, 0, no MYC expression inhibition up to 4.0 μM), the GI50 (NCI-60 cancer cell lines; 786-0, Renal Cancer, 786-0) is given as 0.22 µM and the GI50 (NCI-60 cancer cell lines; A498, Renal Cancer, A498) is given as 10.6 µM. The GI50 (NCI-60 cancer cell lines; A549, Non-Small Cell Lung Cancer, A549/ATCC) was 0.06 µM, the GI50 (NCI-60 cancer cell lines; ACHN, Renal Cancer, ACHN) was 0.09 µM and the GI50 (NCI-60 cancer cell lines; BT-549, Breast Cancer, BT-549) was 3.1 µM. The GI50 (NCI-60 cancer cell lines; CCRF-CEM, Leukemia, CCRF-CEM) was 0.03 µM, the GI50 (NCI-60 cancer cell lines; COLO 205, Colon Cancer, COLO 205) was 4.92 µM and the GI50 (NCI-60 cancer cell lines; DU-145, Prostate Cancer, DU-145) was 0.2 µM. For the same molecule, the GI50 (NCI-60 cancer cell lines; EKVX, Non-Small Cell Lung Cancer, EKVX) was 2.91 µM, the GI50 (NCI-60 cancer cell lines; HCC 2998, Colon Cancer, HCC-2998) was 10 µM and the GI50 (NCI-60 cancer cell lines; HCT-15, Colon Cancer, HCT-15) was 0.09 µM. The GI50 (NCI-60 cancer cell lines; HCT-116, Colon Cancer, HCT-116) was 0.39 µM, the GI50 (NCI-60 cancer cell lines; HL-60, Leukemia, HL-60(TB)) was 0.03 µM and the GI50 (NCI-60 cancer cell lines; HOP-62, Non-Small Cell Lung Cancer, HOP-62) was 0.18 µM. For the same molecule, the GI50 (NCI-60 cancer cell lines; HOP-92, Non-Small Cell Lung Cancer, HOP-92) was 0.13 µM, the GI50 (NCI-60 cancer cell lines; HT-29, Colon Cancer, HT29) was 0.34 µM and the GI50 (NCI-60 cancer cell lines; Hs-578T, Breast Cancer, HS 578T) was 4.9 µM. For the same molecule, the GI50 (NCI-60 cancer cell lines; IGROV-1, Ovarian Cancer, IGROV1) was 0.58 µM, the GI50 (NCI-60 cancer cell lines; K562, Leukemia, K-562) was 0.34 µM and the GI50 (NCI-60 cancer cell lines; KM12, Colon Cancer, KM12) was 0.53 µM. The GI50 (NCI-60 cancer cell lines; LOX IMVI, Melanoma, LOX IMVI) was 0.1 µM, the GI50 (NCI-60 cancer cell lines; Leukemia, SR) was 0.02 µM and the GI50 (NCI-60 cancer cell lines; MCF7, Breast Cancer, MCF7) was 0.04 µM. For the same molecule, the GI50 (NCI-60 cancer cell lines; MDA-MB-231, Breast Cancer, MDA-MB-231/ATCC) was 1.27 µM, the GI50 (NCI-60 cancer cell lines; MDA-MB-435, Melanoma, MDA-MB-435) was 10.3 µM and the GI50 (NCI-60 cancer cell lines; MDA-MB-468, Breast Cancer, MDA-MB-468) was 7.84 µM. The GI50 (NCI-60 cancer cell lines; MOLT-4, Leukemia, MOLT-4) was 0.02 µM, the GI50 (NCI-60 cancer cell lines; Malme-3M, Melanoma, MALME-3M) was 0.93 µM and the GI50 (NCI-60 cancer cell lines; Melanoma, M14) was 1.65 µM. The GI50 (NCI-60 cancer cell lines; NCI-H23, Non-Small Cell Lung Cancer, NCI-H23) was 0.24 µM, the GI50 (NCI-60 cancer cell lines; NCI-H226, Non-Small Cell Lung Cancer, NCI-H226) was 0.27 µM and the GI50 (NCI-60 cancer cell lines; NCI-H322M, Non-Small Cell Lung Cancer, NCI-H322M) was 7.05 µM. It also gave a GI50 (NCI-60 cancer cell lines; NCI-H460, Non-Small Cell Lung Cancer, NCI-H460) of 0.04 µM, a GI50 (NCI-60 cancer cell lines; NCI-H522, Non-Small Cell Lung Cancer, NCI-H522) of 0.84 µM and a GI50 (NCI-60 cancer cell lines; OVCAR-3, Ovarian Cancer, OVCAR-3) of 6.09 µM. For the same molecule, the GI50 (NCI-60 cancer cell lines; OVCAR-4, Ovarian Cancer, OVCAR-4) was 1.45 µM, the GI50 (NCI-60 cancer cell lines; OVCAR-5, Ovarian Cancer, OVCAR-5) was 1.51 µM and the GI50 (NCI-60 cancer cell lines; OVCAR-8, Ovarian Cancer, OVCAR-8) was 0.16 µM. The GI50 (NCI-60 cancer cell lines; Ovarian Cancer, NCl/ADR-RES) was 1.48 µM, the GI50 (NCI-60 cancer cell lines; Prostate Cancer, PC-3) was 1.21 µM and the GI50 (NCI-60 cancer cell lines; RPMI-8226, Leukemia, RPMI-8226) was 0.12 µM. The GI50 (NCI-60 cancer cell lines; RXF 393, Renal Cancer, RXF 393) was 1.66 µM, the GI50 (NCI-60 cancer cell lines; Renal Cancer, U0-31) was 0.3 µM and the GI50 (NCI-60 cancer cell lines; SF-268, CNS Cancer, SF-268) was 1.85 µM. The GI50 (NCI-60 cancer cell lines; SF-295, CNS Cancer, SF-295) was 0.36 µM, the GI50 (NCI-60 cancer cell lines; SF-539, CNS Cancer, SF-539) was 1.04 µM and the GI50 (NCI-60 cancer cell lines; SK-MEL-2, Melanoma, SK-MEL-2) was 18.2 µM. For the same molecule, the GI50 (NCI-60 cancer cell lines; SK-MEL-5, Melanoma, SK-MEL-5) was 0.48 µM, the GI50 (NCI-60 cancer cell lines; SK-MEL-28, Melanoma, SK-MEL-28) was 2.01 µM and the GI50 (NCI-60 cancer cell lines; SK-OV-3, Ovarian Cancer, SK-OV-3) was 1.21 µM. It also gave a GI50 (NCI-60 cancer cell lines; SN12C, Renal Cancer, SN12C) of 0.25 µM, a GI50 (NCI-60 cancer cell lines; SNB-19, CNS Cancer, SNB-19) of 0.33 µM and a GI50 (NCI-60 cancer cell lines; SNB-75, CNS Cancer, SNB-75) of 1.39 µM. The GI50 (NCI-60 cancer cell lines; SW-620, Colon Cancer, SW-620) was 0.2 µM, the GI50 (NCI-60 cancer cell lines; T47D, Breast Cancer, T-47D) was 0.63 µM and the GI50 (NCI-60 cancer cell lines; TK-10, Renal Cancer, TK-10) was 2.75 µM. For the same molecule, the GI50 (NCI-60 cancer cell lines; U-251, CNS Cancer, U251) was 0.18 µM, the GI50 (NCI-60 cancer cell lines; UACC-62, Melanoma, UACC-62) was 0.72 µM and the GI50 (NCI-60 cancer cell lines; UACC-257, Melanoma, UACC-257) was 12.3 µM. It also gave a mean GI50 across NCI-60 panel (MGM) (NCI-60 cancer cell lines; average of GI50 values across the entire panel of NCI-60 cancer cell lines) of 0.6 µM and a minimal effective concentration [1] of 4 µM.
